Measured values: US10874631B2, “Altertoxin II as a selective inhibitor of Ewing family of tumor cells” (priority 2016, dated 2020)

Tests used:
Type in all cases: cell-based
[1] = system: ES-2; assay: alamar blue assay, proliferation; details: Homo sapiens, ES-2, Ewing Sarcoma, N = 3-6
Experimental: (§1) FIG. 3A-3B. (A) The effects of altertoxin II were evaluated using the SRB assay in 6 Ewing sarcoma cell lines as compared to 4 other pediatric solid tumor cells lines. n≥3 independent experiments. (B) The effects of altertoxin II were evaluated by the Houghton laboratory using the alamar blue assay in an additional 6 Ewing sarcoma cell lines and potency compared to the activities in 5 rhabdomyosarcoma cell lines. n=3 independent experiments.
(§2) The effects of altertoxin II were studied in a larger panel of cell lines and the GI50, the concentration that causes 50% inhibition of cell growth, and the TGI, the concentration that caused total growth inhibition, were determined using the sulforhodamine b (SRB assay). The mean GI50 values shown graphically in FIG. 3A. The IC50, the concentration that causes 50% inhibition of cell proliferation, values were determined in a second panel of Ewing sarcoma and rhabdomyosarcoma cell lines using the altar blue assay and these values are presented in Table 2 and the mean in […].

[2] = system: ES-4; assay: alamar blue assay, proliferation; details: ES-4, Ewing Sarcoma
Experimental: as §1, §2

[3] = system: ES-7; assay: alamar blue assay, proliferation; details: Homo sapiens, ES7, ES-7, Ewing Sarcoma
Experimental: as §1, §2

[4] = system: ES-8; assay: alamar blue assay, proliferation; details: Homo sapiens, ES8, ES-8, Ewing Sarcoma
Experimental: as §1, §2

[5] = system: EW-8; assay: alamar blue assay, proliferation
Experimental: as §1, §2

[6] = system: Rh18; assay: alamar blue assay, proliferation; details: Homo sapiens, Rh18, Rhabdomyosarcoma
Experimental: as §1, §2

[7] = system: Rh28; assay: alamar blue assay, proliferation; details: Rh28, Rhabdomyosarcoma
Experimental: as §1, §2

[8] = system: Rh30; assay: alamar blue assay, proliferation; details: Rh30, Rhabdomyosarcoma
Experimental: as §1, §2

[9] = system: Rh36; assay: alamar blue assay, proliferation; details: Rh36, Rhabdomyosarcoma
Experimental: as §1, §2

[10] = system: Rh41; assay: alamar blue assay, proliferation; details: Homo sapiens, Rh41, Rhabdomyosarcoma
Experimental: as §1, §2

[11] = system: Rh5; assay: alamar blue assay, proliferation; details: Rh5, Rhabdomyosarcoma
Experimental: as §1, §2

[12] = system: TC-71; assay: alamar blue assay, proliferation; details: TC-71, Ewing Sarcoma
Experimental: as §1, §2

[13] = system: 4 Ewing sarcoma cell lines, including SK-ES-1 cells; assay: Cell cycle distribution by flow cytometry; details: each of 4 Ewing sarcoma lines
Experimental: FIG. 5A-5B. Altertoxin II causes accumulation of SK-ES-1 Ewing sarcoma cells in the S-phase of the cell cycle. Cell cycle analysis of SK-ES-1 cells by flow cytometry. (A) Histogram of DNA content after treatment with two different concentrations of ATX for 18 hours. (B) quantification of cells in each cell cycle phase.
The effects of altertoxin II on cell cycle distribution were evaluated in 4 Ewing sarcoma cell lines using flow cytometry.

[14] = system: A673 Ewing sarcoma cells; assay: γH2AX immunofluorescence / high-content imaging
Experimental: (§3) FIG. 7A-7B. Altertoxin II (ATXII) selectively induces γH2AX foci in A673 Ewing sarcoma cells. (A) A673 cells were treated for 24 h with 100 nM altertoxin II and serine 139 phosphorylation of γH2AX evaluated by indirect immunofluorescence techniques. (B) High-content imaging and image analysis were used to construct concentration-response curves for nuclear γH2AX intensity in A673 and Rh30 rhabdomyosarcoma cells after treatment with altertoxin II for 6 h.
(§4) Studies were conducted to test whether altertoxin II initiates DNA damage in Ewing sarcoma cells because of the well-known sensitivity of these cells to DNA damage and prior reports of altertoxin II-induced DNA damage in other mammalian cells (Fleck, S. C. et al., Toxicol Lett, 214, 27-32, 2012). […] Consistent with these measures of DNA damage altertoxin II.

[15] = system: Rh30 rhabdomyosarcoma cells; assay: γH2AX high-content imaging
Experimental: as §3, §4

[16] = system: A673 Ewing sarcoma cells; assay: 53BP1 foci immunofluorescence; details: 10 nM and 100 nM, within 6 h
Experimental: (§5) FIG. 8A-8B. The effects of 10 and 100 nM altertoxin II (ATXII) on 53BP1 foci were evaluated following a 6 h treatment of A673 cells by indirect immunofluorescence. (B) Immunofluorescence of R-loop marker S9.6 in TC-32 cells 24 h after ATXII treatment. Arrows indicate R-loops within nuclei.
(§6) Multiple investigators have shown that Ewing sarcoma cells undergo replication stress and R-loop accumulation.

[17] = system: TC-32 cells; assay: R-loop marker S9.6 immunofluorescence; details: TC-32 nuclei, 24 h
Experimental: as §5, §6

[18] = system: RD-ES Ewing sarcoma cells; assay: DNA damage response immunoblot (Chk1, Chk2, p53)
Experimental: (§7) FIG. 9A-9B. Altertoxin II causes phosphorylation of CHK1 and 2 and p53 in Ewing sarcoma cells. Ewing sarcoma cells, A673, RD-ES, SK-ES-1, or rhabdomyosarcoma A204 cells were treated with altertoxin II at the concentrations indicated for 6 h (A) or 24 h (B) and whole-cell lysates prepared and proteins separated by SDS-PAGE. These samples were analyzed by immunoblotting for total and phosphorylated Chk1 and 2 and p53 (A).
(§8) Downstream activation of DNA damage response proteins by altertoxin II was subsequently evaluated.

[19] = system: A204 rhabdomyosarcoma cells; assay: DNA damage response immunoblot (Chk1); details: concentrations up to 1 μM
Experimental: as §7, §8

[20] = system: SK-ES-1 Ewing sarcoma cells; assay: DNA damage response immunoblot (Chk1); details: 100 nM and 1 μM, 24 h
Experimental: as §7, §8

[21] = system: Rh30 cells; assay: Conditioned media effect on cell growth, SRB assay; details: media from TC-32 cells treated with 100 nM for 6 h, vs media from Rh30 cells
Experimental: FIG. 10. Effects of ATXII-conditioned media on Rh30 cell growth. TC-32 or Rh30 cells were treated with 100 nM ATXII for 6 h, the media added to Rh30 cells and cell growth determined with the SRB assay.
An experiment was conducted to test this possibility. TC-32 Ewing sarcoma and Rh30 rhabdomyosarcoma cells were treated with 100 nM ATX for 6 h and the conditioned media was then applied to the resistant Rh30 cells. […] Differences in the altertoxin II concentration were measured by LC/MS in media from TC-32 and HepG2 hepatocellular carcinoma cells.

With `O=C1CC[C@]2(O)c3c(ccc(O)c31)-c1ccc(O)c3c1[C@H]2[C@H]1O[C@H]1C3=O` [altertoxin II] as the compound, how does the IC50 [1] read?
The IC50 was 0.023 ± 0.004 µM.

And the IC50 [2]?
The IC50 was 0.02 ± 0.002 µM.

And the IC50 [3]?
Its IC50 is 0.003 ± 0.001 µM.

And the IC50 [4]?
The IC50 was 0.007 ± 0.001 µM.

What about the IC50 ([5]; EW8, EW-8, Ewing Sarcoma, alamar blue) of the same compound?
The IC50 was 0.0065 ± 0.0003 µM.

What about the “sensitivity of EW-8 cell line” value ([5]; EW-8 is resistant to PARP1 inhibitors) of the same compound?
The value was “highly sensitive”.

And the IC50 [6]?
Its IC50 is 0.99 ± 0.12 µM.

And the IC50 [7]?
Its IC50 is 0.79 ± 0.09 µM.

What about the IC50 [8] of the same compound?
Its IC50 is 0.75 ± 0.06 µM.

And the IC50 [9]?
Its IC50 is 1.03 ± 0.21 µM.

And the IC50 [10]?
The IC50 was 1.13 ± 0.3 µM.

And the IC50 [11]?
The IC50 was 1.05 ± 0.23 µM.

What about the IC50 [12] of the same compound?
The IC50 was 0.0046 ± 0.0005 µM.

What about the cell cycle distribution [13] of the same compound?
Its cell cycle distribution is “Concentration-dependent S-phase arrest”.

What about the “nuclear γH2AX, high-content imaging” value ([14]; 30 nM, 6 h) of the same compound?
The value was “caused an increase in γH2AX”.

What about the “H2AX serine 139 phosphorylation (γH2AX)” value ([14]; 100 nM, within 6 h) of the same compound?
Its value is “rapidly induced H2AX serine 139 phosphorylation”.

What about the γH2AX foci ([15]; 10 μM, 24 h exposure) of the same compound?
Its γH2AX foci is “did initiate γH2AX foci”.

What about the γH2AX foci ([15]; concentrations up to 1 μM, 6 or 24 h) of the same compound?
Its γH2AX foci is “no γH2AX foci were detected”.

What about the 53BP1 foci [16] of the same compound?
Its 53BP1 foci is “nuclear foci were noted”.

What about the “R-loop formation (S9.6 marker)” value [17] of the same compound?
The value was “increased formation of R-loops”.

What about the “phosphorylation of p53” value [18] of the same compound?
The value was “also observed in RD-ES cells”.

And the “phosphorylation of Chk1 and Chk2” value ([18]; 10-300 nM, within 6 h)?
The value was “caused phosphorylation of checkpoint kinase 1 and 2”.

And the Chk1 phosphorylation [19]?
Its Chk1 phosphorylation is “Chk1 phosphorylation was not observed”.

What about the Chk1 phosphorylation [20] of the same compound?
The Chk1 phosphorylation was “Chk1 phosphorylation was also observed”.

What about the “activity of conditioned media against Rh30 cells” value [21] of the same compound?
Its value is “substantially higher activity”.
